Measurements published in patent US10856562B2, “Flavor composition and edible compositions containing same” (MARS, INCORPORATED, priority 2013, dated 2020).
Square brackets hold non-standard residues; d marks the D form. Ends that are not written are not given here. pGlu = O=C1CC[C@@H](C(=O)O)N1

Tested on: panelists
Test: Attribute perception scores of flavor enhancers in solution (Example 6)
Type: in vivo, human
Parameters: key to Metallic / Numbing / Atringent / Salt / Sweet / Sour / Bitter / Umami / Sour, mean evaluation score in solution / Numbing, mean evaluation score in solution / Astringent / Umami FF: 15-point intensity scale, 0 = none, 15 = very strong
Conditions: for Mineral/Flinty aromatic in solution as the concentration increases / Salt perception level in solution as the concentration increases / Umami aromatic in solution as the concentration increases / Umami feeling factor in solution as the concentration increases: 1.0 to 100 ppb; for Astringent / Bitter / Flinty/Mineral / Metallic / Numbing / Salt / Sour / Sweet / Umami / Umami FF / Atringent / Mineral/Flinty / Umami/brothy: solution
Experimental: Descriptive attributes (e.g., taste, flavor and chemical feeling factors) of three use levels of pGlu-Cys (FE-35), pGlu-Cys-Gly (FE-36), pGlu-Cys-Cys (FE-37), pGlu-Cys-Val (FE-38) and pGlu-Val-Cys (UE-30) flavor composition peptides were determined. The three use levels were as follows: 1.0 ppb, 10.0 ppb and 100.0 ppb.
Data was collected for the attributes of the product in-mouth for the use levels according to the following protocol: • The samples were analyzed for flavor by six to nine members of a panel, trained and experienced in flavor evaluation using the Spectrum™ method. Samples were evaluated across multiple panel sessions. • The strength of each attribute was rated on a 15-point scale, where 0=none and 15=very strong. • This scale incorporates the ability to use tenths of a point and therefore has the potential of 150 scale differentiations. • The scale may be expanded beyond 15 points to include extreme ratings if necessary.
A summary of the concentrations of NaCl, water and flavor composition peptides in the solution samples is described in table 24.
The panelists evaluated each sample for the attributes described by table 25.

[1] = 10.0 ppb, mean evaluation score
[2] = 100.0 ppb, mean evaluation score
[3] = Concentration 1, MAX, 15-point scale
[4] = Concentration 1, MEAN, 15-point scale
[5] = Concentration 1, MIN, 15-point scale
[6] = Concentration 10, MAX, 15-point scale
[7] = Concentration 10, MEAN, 15-point scale
[8] = Concentration 10, MIN, 15-point scale
[9] = Concentration 100, MAX, 15-point scale
[10] = Concentration 100, MEAN, 15-point scale
[11] = Concentration 100, MIN, 15-point scale
[12] = 1.0 ppb in solution (NaCl, water), 15-point scale
[13] = 10.0 ppb in solution (NaCl, water), 15-point scale
[14] = 100.0 ppb in solution (NaCl, water), 15-point scale

In the case of [pGlu]-Cys-Val [FE-38], the “Mineral/Flinty aromatic in solution as the concentration increases” value is reported as “increases very slightly”, the “Salt perception level in solution as the concentration increases” value is reported as “increase very slightly in-mouth at 10 ppb” and the “Umami aromatic in solution as the concentration increases” value is reported as “increase very slightly in-mouth at 10 ppb”. For the same substance, the “Umami feeling factor in solution as the concentration increases” value was “shows no distinct pattern”, the “Mineral/Flinty aromatic in solution as the concentration increases” value (listed as FE 38) was “increase very slightly” and the “Salt perception level in solution as the concentration increases” value (listed as FE 38) was “increase very slightly”. The “Umami aromatic in solution as the concentration increases” value (listed as FE 38) was “increase very slightly”, the Astringent (1.0 ppb, mean evaluation score) was 0.0 and the Bitter (1.0 ppb, mean evaluation score) was 0.0. The Flinty/Mineral (1.0 ppb, mean evaluation score) was 1.0, the Metallic (1.0 ppb, mean evaluation score) was 0.0 and the Numbing (1.0 ppb, mean evaluation score) was 0.0. The Salt (1.0 ppb, mean evaluation score) was 3.1, the Sour (1.0 ppb, mean evaluation score) was 0.0 and the Sweet (1.0 ppb, mean evaluation score) was 0.0. For the same substance, the Umami (1.0 ppb, mean evaluation score) was 0.2, the “Umami FF” value (1.0 ppb, mean evaluation score) was 0.7 and the Astringent [1] was 0.0. The Bitter [1] was 0.2, the Flinty/Mineral [1] was 1.1 and the Metallic [1] was 0.0. For the same substance, the Numbing [1] was 0.0, the Salt [1] was 3.7 and the Sour [1] was 0.0. For the same substance, the Sweet [1] was 0.2, the Umami [1] was 0.5 and the “Umami FF” value [1] was 1.8. For the same substance, the Astringent [2] was 0.0, the Bitter [2] was 0.2 and the Flinty/Mineral [2] was 1.3. For the same substance, the Metallic [2] was 0.0, the Numbing [2] was 0.0 and the Salt [2] was 3.7. For the same substance, the Sour [2] was 0.0, the Sweet [2] was 0.2 and the Umami [2] was 0.5. The “Umami FF” value [2] was 1.7, the Atringent [3] was 0.0 and the Bitter [3] was 0.0. It also gave a Metallic [3] of 0.0, a Mineral/Flinty [3] of 1.5 and a Numbing [3] of 0.0. It also gave a Salt [3] of 3.5, a Sour [3] of 0.0 and a Sweet [3] of 0.0. The Umami [3] was 1.0, the Umami/brothy [3] was 1.0 and the Atringent [4] was 0.0. The Bitter [4] was 0.0, the Metallic [4] was 0.0 and the Mineral/Flinty [4] was 1.0. It also gave a Numbing [4] of 0.0, a Salt [4] of 3.1 and a Sour [4] of 0.0. It also gave a Sweet [4] of 0.0, a Umami [4] of 0.7 and a Umami/brothy [4] of 0.2. It also gave an Atringent [5] of 0.0, a Bitter [5] of 0.0 and a Metallic [5] of 0.0. The Mineral/Flinty [5] was 0.5, the Numbing [5] was 0.0 and the Salt [5] was 2.8. For the same substance, the Sour [5] was 0.0, the Sweet [5] was 0.0 and the Umami [5] was 0.0. It also gave a Umami/brothy [5] of 0.0, an Atringent [6] of 0.0 and a Bitter [6] of 0.8. It also gave a Metallic [6] of 0.0, a Mineral/Flinty [6] of 1.5 and a Numbing [6] of 0.0. It also gave a Salt [6] of 4.0, a Sour [6] of 0.0 and a Sweet [6] of 1.0. The Umami [6] was 3.0, the Umami/brothy [6] was 1.0 and the Atringent [7] was 0.0. The Bitter [7] was 0.2, the Metallic [7] was 0.0 and the Mineral/Flinty [7] was 1.1. It also gave a Numbing [7] of 0.0, a Salt [7] of 3.7 and a Sour [7] of 0.0. For the same substance, the Sweet [7] was 0.2, the Umami [7] was 1.8 and the Umami/brothy [7] was 0.5. For the same substance, the Atringent [8] was 0.0, the Bitter [8] was 0.0 and the Metallic [8] was 0.0. For the same substance, the Mineral/Flinty [8] was 0.8, the Numbing [8] was 0.0 and the Salt [8] was 3.0. For the same substance, the Sour [8] was 0.0, the Sweet [8] was 0.0 and the Umami [8] was 0.0. It also gave a Umami/brothy [8] of 0.0, an Atringent [9] of 0.0 and a Bitter [9] of 0.8. It also gave a Metallic [9] of 0.0, a Mineral/Flinty [9] of 1.5 and a Numbing [9] of 0.0. It also gave a Salt [9] of 4.0, a Sour [9] of 0.0 and a Sweet [9] of 1.0. For the same substance, the Umami [9] was 3.8, the Umami/brothy [9] was 1.0 and the Atringent [10] was 0.0. It also gave a Bitter [10] of 0.2, a Metallic [10] of 0.0 and a Mineral/Flinty [10] of 1.3. It also gave a Numbing [10] of 0.0, a Salt [10] of 3.7 and a Sour [10] of 0.0. For the same substance, the Sweet [10] was 0.2, the Umami [10] was 1.7 and the Umami/brothy [10] was 0.5. The Atringent [11] was 0.0, the Bitter [11] was 0.0 and the Metallic [11] was 0.0. It also gave a Mineral/Flinty [11] of 0.8, a Numbing [11] of 0.0 and a Salt [11] of 3.5. For the same substance, the Sour [11] was 0.0, the Sweet [11] was 0.0 and the Umami [11] was 0.5. It also gave a Umami/brothy [11] of 0.0.

With [pGlu]-Val-Cys [UE-30] the “Astringent, mean evaluation score in solution” value (shortened to “Astringent … in solution”) [12] was 0.0, the “Bitter, mean evaluation score in solution” value (“Bitter … in solution” below) [12] was 0.0 and the “Flinty/Mineral, mean evaluation score in solution” value (from here on “Flinty/Mineral … in solution”) [12] was 0.4. For the same substance, the “Metallic, mean evaluation score in solution” value (shortened to “Metallic … in solution”) [12] was 0.0, the “Numbing, mean evaluation score in solution” value (from here on “Numbing … in solution”) [12] was 0.0 and the “Salt, mean evaluation score in solution” value [12] was 1.2. For the same substance, the “Sour, mean evaluation score in solution” value [12] was 0.0, the “Sweet, mean evaluation score in solution” value [12] was 0.0 and the “Umami FF, mean evaluation score in solution” value (“Umami FF … in solution” below) [12] was 0.1. For the same substance, the “Umami, mean evaluation score in solution” value [12] was 0.0, the “Mineral/Flinty aromatic in solution as the concentration increases” value was “increases” and the “Salt perception level in solution as the concentration increases” value was “increases slightly”. The “Umami aromatic in solution as the concentration increases” value was “shows no distinct pattern”, the “Umami feeling factor in solution as the concentration increases” value was “increases” and the “Mineral/Flinty aromatic in solution as the concentration increases” value (listed as UE 30) was “increase slightly”. The “Salt perception level in solution as the concentration increases” value (listed as UE 30) was “increase slightly”, the “Astringent … in solution” value [13] was 0.0 and the “Bitter … in solution” value [13] was 0.0. For the same substance, the “Flinty/Mineral … in solution” value [13] was 0.8, the “Metallic … in solution” value [13] was 0.0 and the “Numbing … in solution” value [13] was 0.0. For the same substance, the “Salt, mean evaluation score in solution” value [13] was 1.5, the “Sour, mean evaluation score in solution” value [13] was 0.0 and the “Sweet, mean evaluation score in solution” value [13] was 0.0. The “Umami FF … in solution” value [13] was 0.6, the “Umami, mean evaluation score in solution” value [13] was 0.4 and the “Astringent … in solution” value [14] was 0.0. The “Bitter … in solution” value [14] was 0.7, the “Flinty/Mineral … in solution” value [14] was 1.1 and the “Metallic … in solution” value [14] was 0.0. The “Numbing … in solution” value [14] was 0.0, the “Salt, mean evaluation score in solution” value [14] was 1.8 and the “Sour, mean evaluation score in solution” value [14] was 0.0. The “Sweet, mean evaluation score in solution” value [14] was 0.0, the “Umami FF … in solution” value [14] was 2.1 and the “Umami, mean evaluation score in solution” value [14] was 0.1. The Atringent [3] was 0.0, the Bitter [3] was 0.0 and the Metallic [3] was 0.0. It also gave a Mineral/Flinty [3] of 0.5, a Numbing [3] of 0.0 and a Salt [3] of 1.5. For the same substance, the Sour [3] was 0.0, the Sweet [3] was 0.0 and the Umami [3] was 0.5. The Umami/brothy [3] was 0.0, the Atringent [4] was 0.0 and the Bitter [4] was 0.0. It also gave a Metallic [4] of 0.0, a Mineral/Flinty [4] of 0.4 and a Numbing [4] of 0.0. It also gave a Salt [4] of 1.2, a Sour [4] of 0.0 and a Sweet [4] of 0.0. It also gave a Umami [4] of 0.1, a Umami/brothy [4] of 0.0 and an Atringent [5] of 0.0. For the same substance, the Bitter [5] was 0.0, the Metallic [5] was 0.0 and the Mineral/Flinty [5] was 0.0. For the same substance, the Numbing [5] was 0.0, the Salt [5] was 1.0 and the Sour [5] was 0.0. It also gave a Sweet [5] of 0.0, a Umami [5] of 0.0 and a Umami/brothy [5] of 0.0. The Atringent [6] was 0.0, the Bitter [6] was 0.0 and the Metallic [6] was 0.0. It also gave a Mineral/Flinty [6] of 1.0, a Numbing [6] of 0.0 and a Salt [6] of 2.0. It also gave a Sour [6] of 0.0, a Sweet [6] of 0.0 and a Umami [6] of 1.0. For the same substance, the Umami/brothy [6] was 0.8, the Atringent [7] was 0.0 and the Bitter [7] was 0.0. It also gave a Metallic [7] of 0.0, a Mineral/Flinty [7] of 0.8 and a Numbing [7] of 0.0. For the same substance, the Salt [7] was 1.5, the Sour [7] was 0.0 and the Sweet [7] was 0.0. For the same substance, the Umami [7] was 0.6, the Umami/brothy [7] was 0.4 and the Atringent [8] was 0.0. The Bitter [8] was 0.0, the Metallic [8] was 0.0 and the Mineral/Flinty [8] was 0.0. For the same substance, the Numbing [8] was 0.0, the Salt [8] was 1.0 and the Sour [8] was 0.0. The Sweet [8] was 0.0, the Umami [8] was 0.0 and the Umami/brothy [8] was 0.0. It also gave an Atringent [9] of 0.0, a Bitter [9] of 1.5 and a Metallic [9] of 0.0. The Mineral/Flinty [9] was 1.5, the Numbing [9] was 0.0 and the Salt [9] was 2.0. The Sour [9] was 0.0, the Sweet [9] was 0.0 and the Umami [9] was 3.0. For the same substance, the Umami/brothy [9] was 0.5, the Atringent [10] was 0.0 and the Bitter [10] was 0.7. It also gave a Metallic [10] of 0.0, a Mineral/Flinty [10] of 1.1 and a Numbing [10] of 0.0. For the same substance, the Salt [10] was 1.8, the Sour [10] was 0.0 and the Sweet [10] was 0.0. The Umami [10] was 2.1, the Umami/brothy [10] was 0.1 and the Atringent [11] was 0.0. It also gave a Bitter [11] of 0.0, a Metallic [11] of 0.0 and a Mineral/Flinty [11] of 0.8. It also gave a Numbing [11] of 0.0, a Salt [11] of 1.0 and a Sour [11] of 0.0. The Sweet [11] was 0.0, the Umami [11] was 1.5 and the Umami/brothy [11] was 0.0.
